Source: patent publication EP2353599A1, “8-hydroxyquinolines as inhibitors of cathepsin B” (University of Ljubljana, priority 2010, dated 2011)

How the values were obtained:
[1] = target: T1, Cathepsin B (Homo sapiens, UniProt P07858); test: Cathepsin B exopeptidase activity, enzyme kinetics with substrate Abz-GIVRAK(Dnp)-OH; assay type: biochemical
Experimental: The effect of 5-nitro-8-hydroxyquinoline on cathepsin B exopeptidase activity was assessed with an exopeptidase substrate Abz-GIVRAK(Dnp)-OH. 5 µl of Abz-GIVRAK(Dnp)-OH (final concentration 1, 3 and 6 µM) and 5 µl of 5-nitro-8-hydroxyquinoline at increasing concentrations were added to wells of a black microplate. 90 µl of human recombinant cathepsin B was then added to a final concentration of 0.25 nM in activation buffer (60 mM acetate buffer, pH 5.0 with 0.1 % PEG, 5 mM DTT and 1.5 mM EDTA). All assay mixtures contained a constant amount of DMSO, i.e. 5 %.
Formation of fluorescent degradation product was continuously monitored at 320 nm ± 20 nm excitation and 420 nm ± 10 nm emission wavelengths on Tecan Safire^2™ at 37°C. Mechanism and the constant of inhibition (Ki) of cathepsin B exopeptidase activity were determined using the graphical method according to Cornish-Bowden (Cornish-Bowden A: A Simple Graphical Method for Determining the Inhibition Constants of Mixed, Uncompetitive and Non-Competitive Inhibitors. Biochem J 1974, 137:143-4.) and using the SigmaPlot® 11, Enzyme Kinetics Module™ 1.3.

[2] = target: T1, Cathepsin B; test: Reversibility with active site probe DCG-04 (labelling, SDS-PAGE, blot); assay type: binding; details: 0.1, 1, 10 and 50 µM inhibitor, 1 h, then 2 µM DCG-04
Source text: Second, the reversibility of 5-nitro-8-hydroxyquinoline was also studied with the active site probe DCG-04. DCG-04 is a derivative of an irreversible epoxysuccinic inhibitor of cysteine proteases E-64 with an additional biotin moiety which enables detection of covalently modified proteases with labelling intensity correlating with enzymatic activity (Greenbaum D, Medzihradszky KF, Burlingame A, Bogyo M: Epoxide electrophiles as activity-dependent cysteine protease profiling and discovery tools. Chem Biol 2000, 7: 569-81.). 1 µg of recombinant cathepsin B in 50 mM Tris, pH 5.5 containing 1 mM DTT, 5 mM MgCl2 and 250 mM sucrose was incubated with 0.1, 1, 10 in 50 µM 5-nitro-8-hydroxyquinoline (diluted from 10 mM DMSO stocks) for 1 h at room temperature. Samples were then labelled with 2 µM DCG-04 for an additional h at room temperature. After boiling in reducing sample buffer for 10 min samples were analyzed by 12.5 % SDS-PAGE and transferred to a nitrocellulose membrane. The latter was then blocked with 0.5 % Tween 20 in PBS overnight at 4 °C and incubated with 1 µg/ml streptavidin-horseradish peroxidase in 0.2 % Tween 20 in PBS for 1 h at room temperature. The membrane was washed five times with 0.2 % Tween 20 in PBS and the spots on the membrane were visualized with 0.5 mg/ml 3,3'-diaminobenzidine and 0.0005 % (v/v) H2O2 in 50 mM Tris, pH 7.5. […]

[3] = tested on: MCF-10A neoT cells; test: MTS cytotoxicity assay; assay type: cell-based; details: 10 µM, 24 h incubation
Experimental: A MTS assay was used to assess the cytotoxic effect of 5-nitro-8-hydroxyquinoline on MCF-10A neoT cells. 5 × 10^4 cells in 100 µl of medium were added to a single well of a 96-microtiter plate to which a 100 µl of 5-nitro-8-hydroxyquinoline solution (twice the final concentration) was added. After 24 h incubation the cells were washed and the medium was replaced with 100 µl of fresh medium to which a 20 µl of MTS was added. After 2 h incubation the absorbance was measured at 490 nm. The experiment was performed in quadruplicates and DMSO was used as control.

[4] = tested on: MCF-10A neoT cells; test: Three-dimensional in vitro invasion model based on spheroids; assay type: cell-based; details: 10 µM, Matrigel
Experimental: The ability of 5-nitro-8-hydroxyquinoline to inhibit tumour cell invasion was also tested in a three-dimensional in vitro invasion model based on spheroids. Multicellular tumour spheroids were prepared according to hanging drop method (Kelm JM, Timmins NE, Brown CJ, Fussenegger M, Nielsen LK: Method for generation of homogeneous multicellular tumour spheroids applicable to a wide variety of cell types. Biotechnol Bioeng 2003, 83:173-80.). Drops (20 µl) of MCF-10A neoT cell suspension ([…]) were placed onto the lids of 10 cm dishes which were inverted over dishes containing 10 ml of PBS. Upon inversion of the tray the cells accumulated at the free liquid-air interface in this way forming spheroids after sufficient sedimentation time, in our case 6 days. Wells of a 24-well plate were filled with 400 µl of Matrigel (5mg/ml) containing the 5-nitro-8-hydroxyquinoline at the final concentration of 10 µM. After 15 min incubation at 37 °C 1 ml of medium with the test compound (10 µM) was placed on top of Matrigel. Spheroids were then carefully plated into the wells and incubated at 37 °C in a humidified atmosphere containing 5 % CO2. Images of spheroids were obtained using an Olympus IX 81 motorized inverted microscope and CellR software.

[5] = tested on: MCF-10A neoT cells; test: Extracellular DQ-collagen IV degradation, fluorescence intensity in medium; assay type: cell-based; details: Homo sapiens, MCF-10A-neoT, 3 h, DQ-collagen IV 5 µg/ml
Experimental: Two experiments were set to differentiate between inhibition of intracellular and extracellular DQ-collagen IV degradation. Inhibition of extracellular DQ-collagen IV degradation was observed by monitoring the fluorescence intensity of degraded DQ-collagen IV in the medium in which MCF-10A neoT cells were grown. 5 × 10^4 MCF-10A neoT cells were plated into wells of a 96-well black plate and were allowed to attach over night. Cells were then incubated with 100 µl PBS containing 5-nitro-8-hydroxyquinoline, CA-074 or CA-074Me (10 µM) and DQ-collagen IV (5 µg/ml) for 3 h. Afterwards, the 80 µl of PBS was transferred into the empty wells and the fluorescence intensity was measured at 495 nm ± 5 nm excitation and 515 nm ± 5 nm emission wavelengths on Tecan Safire^2™. The experiment was performed in 8 parallels and DMSO was used as a control.

[6] = tested on: MCF-10A neoT cells; test: Intracellular DQ-collagen IV degradation by flow cytometry; assay type: cell-based; details: 50 µM, shift in fluorescence intensity
Experimental: Inhibition of intracellular DQ-collagen IV degradation was observed by flow cytometry by a shift in fluorescence intensity. 5 × 10^4 MCF-10A neoT cells in complete medium were plated into the wells of a 24-well plate and allowed to attach over night. Afterwards, the medium was replaced with 500 µl of serum free medium with 5-nitro-8-hydroxyquinoline, CA-074 or CA-074Me (50 µM). After 2 h incubation the medium was again replaced with serum free medium containing inhibitors (50 µM) and DQ-collagen IV (5 µg/ml). DMSO was used as a control. For the experiment only viable cells were selected using propidium iodide. The measurements were performed on a FACS Calibur instrument (Beckton Dickinson, Inc.).

Mechanism of inhibition ([1]; cathepsin B exopeptidase activity): non-competitive
Ki ([1]; exopeptidase activity, substrate Abz-GIVRAK(Dnp)-OH, pH 5.0, 37°C): 220 ± 13.3 µM
inhibits endopeptidase activity more potently than exopeptidase activity ([1]; ratio of exopeptidase Ki to endopeptidase Ki): 5.8 times
SMILES: O=[N+]([O-])c1ccc(O)c2ncccc12 [Compound 1, 5-nitro-8-hydroxyquinoline]
intensity of spots (DCG-04 labelling) versus DMSO control [2]: did not differ significantly from the DMSO control
cytotoxic effect (cell viability, MTS) [3]: non-toxic
inhibition of tumour invasion in three-dimensional spheroid model [4]: completely abrogated the invasive activity at the edge of the spheroid
inhibition at 10 µM [5]: 35.3%
inhibition of intracellular DQ-collagen IV degradation [6]: significantly inhibits
